Measured values reported in patent publication US20260242394A1, “USP2 INHIBITORS AND METHODS OF USING THE SAME FOR THE TREATMENT OF DISEASES” (ICAHN SCHOOL OF MEDICINE AT MOUNT SINAI, priority 2023, published 2026).

How the values were obtained:
[1] = In vivo mouse PK studies; details: plasma, po, 10 mg/kg
Experimental: Example 222. (FIG. 14) PK results of selected compounds. (a) Plasma concentrations of MS102 and ML346 over 24 h after i.p. injection at 50 mg/kg dose. (b) Plasma concentrations of MS102 over 24 h using different administration routes: […]. (50 mg/kg) by. (c) Plasma concentrations of […]161-180 and XH153-182 over 8 h at 5 mg/kg dose by i.p. injection. (d) Plasma concentrations of XH161-172 over 24 h using different administration routes: […]) Plasma concentrations of XH161-180 over 24 h using different administration routes: […]. (10 mg/kg). Pharmacokinetic studies for ML364, MS102, MS1172, MS1180 and XH153-182 were performed by Sai Life Sciences Limited (India). Experiments were design with 3 mice/time point/compound. Animals were administered intraperitoneally, intravenously as slow bolus injection through tail vein, or through oral route with solution formulation of indicated compound at indicated dose. […] Blood samples (approximately 60 μL) were collected under light isoflurane anesthesia (Surgivet®) from a set of three mice at different time points. Immediately after blood collection, plasma was harvested by centrifugation at 4000 rpm, 10 min at 4° C., and samples were stored at -70±10° C. until bioanalysis. All samples were processed for analysis by protein precipitation method and analyzed with the fit-for-purpose LC-MS/MS method (LLOQ=1.01 ng/mL). […]

[2] = test system: P53 and P21 protein levels in H460 and A375 cells; assay: Immunoblotting of p53 and p21 protein levels in H460 and A375 cells; assay type: cell-based; details: FIGS. 12-13
Experimental: Example 220. (FIG. 12) Screening of selected USP2 inhibitors in H460 cells using immunoblotting experiments. The effect of selected USP2 inhibitors (10 μM, 48 h treatment time) on modulating the protein levels of p53 and p21 in H460 cells. Example 221. (FIG. 13) Screening of selected USP2 inhibitors in A375 cells using immunoblotting experiments. The effect of selected USP2 inhibitors with indicated concentration after indicated treatment time on modulating the protein levels of p53 and p21 in A375 cells. Whole cell extracts were prepared with Flag lysis buffer (50 mM Tris-HCl, pH 8.0, 137 mM NaCl, 1 mM NaF, 1 mM NaVO3, 1% Triton X-100, 0.2% sarkosyl, 0.5 mM DTT, 0.5 mM PMSF and 10% glycerol) containing fresh-added protease inhibitors. For cytosolic and nuclear fractions, the cell pellet was firstly incubated with Harvest buffer (10 mM Hepes (pH 8.0), 50 mM NaCl, 0.5 M sucrose, 0.1 mM EDTA, and 0.25% Triton X-100) containing fresh-added protease inhibitors for 5 min on ice followed by centrifugation @120 g for 10 min. The supernatant was cytosolic fraction. After wash twice with buffer A (10 mM Hepes (pH 8.0), 10 mM KCl, 0.1 mM EDTA, and 0.1 mM EGTA), nuclear pellet was lyzed with BC100 (50 mM Tris-HCl, pH 8.0, 100 mM NaCl, 0.2% Triton X-100, and 10% glycerol) containing fresh-added protease inhibitors for 30 min on ice to get the nuclear fraction. Protein concentration was measured with the protein assay dye reagent (Bio-Rad, Cat #5000006) as manufacturer's user guide. 20-60 μg total proteins were loaded to and separated in SDS-PAGE precast gels, then transferred to nitrocellulose membrane. After incubation with primary antibodies for overnight at 4° C., HRP-conjugated secondary antibodies were used, and western blot signals were detected on autoradiographic films after incubating with ECL substrate.

[3] = test system: H460 and A375 cells; assay: Cell viability assays in H460 and A375 cells; assay type: cell-based; details: FIGS. 9-11
Experimental: Example 217. (FIG. 9) Screening of selected USP2 inhibitors using cell viability assays. H460 cells were treated with […] of indicated compounds for 48 h, cell viabilities were indicated by the images of cell morphology. Example 218. (FIG. 10) Screening of selected USP2 inhibitors using cell viability assays. A375 cells were treated with indicated concentration of indicated compounds for 48 h, cell viabilities were indicated by the images of cell morphology. Example 219. (FIG. 11) GI50 determination of selected compounds in A375 cells after 48 hours treatment. 0.3 million of H460 cells were seeded in 6-well plate. Next day, cells were treated with 10 uM of drugs for 48 h. DMSO served as negative control. Images of cell morphology were obtained with Olympus IX51 microscope, indicating the cell viability upon treatment.

[4] = test system: ACE2 and cyclin D1 protein levels in HepG2 cells; assay: Immunoblotting of ACE2 and cyclin D1 protein levels in HepG2 cells
[5] = biological target: T1, USP2 (Homo sapiens, UniProt O75604); assay: biochemical
T1 sequence (O75604 259-605 limits assumed): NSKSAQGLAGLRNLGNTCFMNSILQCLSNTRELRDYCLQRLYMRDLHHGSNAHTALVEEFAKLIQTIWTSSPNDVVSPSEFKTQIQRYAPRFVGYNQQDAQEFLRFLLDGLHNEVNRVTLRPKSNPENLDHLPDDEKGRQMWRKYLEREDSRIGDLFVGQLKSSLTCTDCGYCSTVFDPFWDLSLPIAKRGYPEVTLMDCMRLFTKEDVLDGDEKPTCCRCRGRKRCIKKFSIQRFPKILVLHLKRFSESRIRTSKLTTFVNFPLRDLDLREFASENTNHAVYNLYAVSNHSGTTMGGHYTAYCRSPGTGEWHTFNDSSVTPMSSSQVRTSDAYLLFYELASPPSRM

bioavailability [1] [%]	SMILES	tumor suppressors P53 and P21 protein levels [2]	antiproliferation effect [3]	ACE2 protein level [4]	IC50 [5] [µM]
100	CC(C)S(=O)(=O)Nc1cc(F)ccc1C(=O)Nc1nc(-c2ccc(Br)cc2)cs1 [MS1172, N-(4-(4-bromophenyl)thiazol-2-yl)-4-fluoro-2-((1-methylethyl)sulfonamido)benzamide]	elevating	antiproliferation effect		
95	O=C(Nc1nc(-c2ccc(Br)cc2)cs1)c1ccc(F)cc1NS(=O)(=O)C1CCCCC1 [MS1180, N-(4-(4-bromophenyl)thiazol-2-yl)-2-(cyclohexanesulfonamido)-4-fluorobenzamide]	elevating	antiproliferation effect		
	Cc1ccc(S(=O)(=O)Nc2cc(F)ccc2C(=O)Nc2nccs2)cc1 [XH153-182, 4-fluoro-2-((4-methylphenyl)sulfonamido)-N-(thiazol-2-yl)benzamide]	elevating	antiproliferation effect		
	Cc1ccc(S(=O)(=O)Nc2ccc(C(F)(F)F)cc2C(=O)Nc2nc(-c3ccc(Br)cc3)cs2)cc1 [XH161-102 (MS102), N-(4-(4-bromophenyl)thiazol-2-yl)-2-((4-methylphenyl)sulfonamido)-5-(trifluoromethyl)benzamide]			dose-dependent reduce	5
	O=c1c2ccc(F)cc2nc(C(F)(F)F)n1-c1nc(-c2ccc(Br)cc2)cs1 [XH188-135p1, 3-(4-(4-Bromophenyl)thiazol-2-yl)-7-fluoro-2-(trifluoromethyl)quinazolin-4(3H)-one]	elevating	antiproliferation effect		
	O=C(Nc1nc(-c2ccc(Br)cc2)cs1)c1ccc(F)cc1NC(=O)C(F)(F)F [XH188-135p2, N-(4-(4-Bromophenyl)thiazol-2-yl)-4-fluoro-2-(2,2,2-trifluoroacetamido)benzamide]	elevating	antiproliferation effect		
	O=C(Nc1nc(-c2ccc(F)cc2)cs1)c1ccc(F)cc1NC(=O)C(F)(F)F [XH198-68p2, 4-Fluoro-N-(4-(4-fluorophenyl)thiazol-2-yl)-2-(2,2,2-trifluoroacetamido)benzamide]	elevating	antiproliferation effect		
	O=C(Nc1cc(F)ccc1C(=O)Nc1nc(-c2ccc(F)cc2)cs1)c1ccc(C(F)(F)F)cc1 [XH208-93p2, 4-Fluoro-N-(4-(4-fluorophenyl)thiazol-2-yl)-2-(4-(trifluoromethyl)benzamido)benzamide]	elevating	antiproliferation effect		
